Results taken from the NIST ThermoML archive (doi:10.1021/je300234g).

Assays:
[1] = Crystal; visual observation
[2] = relative permittivity at zero frequency (dimensionless); details: 101.3 kPa, Liquid, Parallel plate capacitor

C1COCCOCCOCCO1 [1,4,7,10-tetraoxacyclododecane]
Details | Normal melting temperature [°C]
[1] | 16

[2]
Details | relative permittivity at zero frequency
295.65 K | 10.95
298.15 K | 10.82
300.65 K | 10.7
303.15 K | 10.58
305.65 K | 10.45
308.15 K | 10.34
310.65 K | 10.22
313.15 K | 10.11
315.65 K | 10
318.15 K | 9.9
320.65 K | 9.79
323.15 K | 9.69
325.65 K | 9.59
328.15 K | 9.49
330.65 K | 9.41
333.15 K | 9.31
335.65 K | 9.22
338.15 K | 9.13
340.65 K | 9.04
343.15 K | 8.94
345.65 K | 8.86
348.15 K | 8.76
350.65 K | 8.68
353.15 K | 8.59

C1COCCOCCOCCOCCO1 [1,4,7,10,13-pentaoxacyclopentadecane]
Details | Normal melting temperature [°C]
[1] | -20

[2]
Details | relative permittivity at zero frequency
273.15 K | 17.82
275.65 K | 17.56
278.15 K | 17.3
280.65 K | 17.05
283.15 K | 16.81
285.65 K | 16.57
288.15 K | 16.34
290.65 K | 16.11
293.15 K | 15.89
295.65 K | 15.68
298.15 K | 15.48
300.65 K | 15.28
303.15 K | 15.08
305.65 K | 14.88
308.15 K | 14.69
310.65 K | 14.5
313.15 K | 14.31
315.65 K | 14.14
318.15 K | 13.96
320.65 K | 13.79
323.15 K | 13.63
325.65 K | 13.46
328.15 K | 13.3
330.65 K | 13.15
333.15 K | 13

C1COCCOCCOCCOCCOCCO1 [1,4,7,10,13,16-hexaoxacyclooctadecane]
Details | Normal melting temperature [°C]
[1] | 43.4

[2]
Details | relative permittivity at zero frequency
315.65 K | 8.9
318.15 K | 8.86
320.65 K | 8.82
323.15 K | 8.77
325.65 K | 8.73
328.15 K | 8.69
330.65 K | 8.64
333.15 K | 8.59
335.65 K | 8.54
338.15 K | 8.49
340.65 K | 8.44
343.15 K | 8.39
345.65 K | 8.34
348.15 K | 8.29
350.65 K | 8.24
353.15 K | 8.19
